Legend:
[1] = biological target: T1, cannabinoid CB1 receptor (CB1) (Mus musculus, UniProt P47746); assay: Antagonization of CB1-mediated hypothermia; type: in vivo; settings: female NMRI mice; 1.25 mg/kg intraperitoneally; within 30 min
T1 construct: from tissue; host or cells: whole animal (female NMRI mice)
Experimental: The test is used to measure the potency of cannabinoid CB1 receptor (CB1) antagonists. What is measured is the extent to which the CB1 antagonists to be tested are capable of preventing or of antagonizing hypothermia induced by a CB1 agonist.
Female NMRI mice, 25-35 g in weight, are used. The mice are accustomed to the housing conditions for at least one week.
At time 0 min, the animals are treated orally, intravenously or intraperitoneally with the CB1 antagonist to be tested. 30 min later, the CB1 agonist CP55.940, 1.25 mg/kg, is administered to the mice intraperitoneally. This brings about a fall in the body temperature by 5-6° C. within 30 min. The body temperature is measured rectally for the first time 30 min before the test substance administration and then every 30 min after this administration, if appropriate immediately before a substance administration, over 4 hours.
The potency of the test substances is reported as the percentage decrease in the area under the temperature-time curve which is formed firstly by the average basal temperature, and secondly by the temperature-time curve, of the animals treated exclusively with the CB1 antagonist.

[2] = biological target: T2, hCB1R (Homo sapiens, UniProt P21554); assay: Binding to the CB1 receptor ([3H]-SR141716A displacement); parameters: expressed in transfected cells; host or cells: CHO-K1; settings: CHO-K1/cannabinoid CB1 protein; ligand [3H]-SR141716A 0.5 nM; Ki from IC50 by Cheng-Prusoff
T2 sequence (P21554 whole entry): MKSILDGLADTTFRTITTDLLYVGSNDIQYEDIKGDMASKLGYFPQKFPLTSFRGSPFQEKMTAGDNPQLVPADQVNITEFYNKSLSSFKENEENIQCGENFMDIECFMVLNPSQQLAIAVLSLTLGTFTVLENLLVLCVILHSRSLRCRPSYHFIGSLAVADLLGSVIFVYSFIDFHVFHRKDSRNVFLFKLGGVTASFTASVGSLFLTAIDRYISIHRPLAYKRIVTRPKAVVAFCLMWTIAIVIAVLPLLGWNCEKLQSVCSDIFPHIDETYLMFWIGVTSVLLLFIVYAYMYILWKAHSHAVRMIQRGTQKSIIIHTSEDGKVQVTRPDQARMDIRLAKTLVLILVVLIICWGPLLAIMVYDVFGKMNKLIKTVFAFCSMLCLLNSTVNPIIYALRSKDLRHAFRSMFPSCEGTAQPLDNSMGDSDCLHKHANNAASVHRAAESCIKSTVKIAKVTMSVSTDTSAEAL
Experimental: Test compounds: The compounds (3 μl, 10 mM, 100% DMSO), pipetted into 96-well PP microtiter plates, were diluted with 27 μl of 100% DMSO (dimethyl sulfoxide). Proceeding from this solution, further 3-fold dilution steps were undertaken by transferring 10 μl in each case to a new PP microtiter plate and adding a further 20 μl of 100% DMSO. In each case 6 μl of these solutions were transferred into new 96-well PP microtiter plates and made up with 144 μl of assay buffer. The end concentrations ranged from 10 μM to 0.005 μM.
Negative control: AM 251, dissolved in assay buffer with 1% DMSO, was added to the dilution series in the microtiter plates as a control. The end concentration was 1 μM.
Blank control: assay buffer with 1% DMSO was added to the dilution series of the microtiter plates as a blank control.
High control: ^3H binding without addition of the compound
Low control: ^3H binding in the presence of 1 μM AM 251
The values were calculated using the corrected raw data.
The values reported were obtained as average values of a double determination. The IC50 values were calculated from the measurements with the program Xlfit, formula 205. Ki values were obtained from the IC50 and Kd values utilizing the Cheng-Prusoff equation: […]
Literature: Cheng, Y.-C., and Prusoff, W. H. (1973) Biochem. Pharmacol 22, 3099-3108

[3] = biological target: T3, hCB2R (Homo sapiens, UniProt P34972); assay: In vitro functional assay with recombinant cells (FLIPR), cannabinoid 2 receptor; type: cell-based; settings: recombinant HEK293 cells expressing CB2 and G-protein Galpha16; intracellular Ca2+ change against reference agonist
T3 construct: expressed in transfected cells; host or cells: HEK293
T3 sequence (P34972 whole entry): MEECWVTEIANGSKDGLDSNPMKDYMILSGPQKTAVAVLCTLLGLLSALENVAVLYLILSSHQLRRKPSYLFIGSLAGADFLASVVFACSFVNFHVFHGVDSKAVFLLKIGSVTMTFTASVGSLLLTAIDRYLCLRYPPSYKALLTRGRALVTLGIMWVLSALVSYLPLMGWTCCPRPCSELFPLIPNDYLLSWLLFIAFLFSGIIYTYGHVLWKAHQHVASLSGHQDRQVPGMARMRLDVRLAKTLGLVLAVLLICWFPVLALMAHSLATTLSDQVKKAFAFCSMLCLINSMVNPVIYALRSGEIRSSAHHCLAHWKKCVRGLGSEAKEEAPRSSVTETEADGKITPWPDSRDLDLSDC
Experimental: (§1) Function-testing assays were performed by means of the FLIPR technique (“Fluorometric Imaging Plate Reader”, Molecular Devices Corp.).
(§2) To this end, ligand-induced changes in the intracellular concentration of Ca^2+ in recombinant HEK293 cells, which expressed both a cannabinoid receptor (CB1 or CB2) and G-protein Galpha16, were determined. For the studies, cells were sown into 96-well microtiter plates (60 000 cells/well) and left to grow overnight. The medium was removed and the cells were incubated in buffer which contained the fluorescent dye Fluo-4. After this loading with dye, the cells were washed, test substance was added dissolved in buffer, the mixture was incubated for 20 minutes, a known cannabinoid receptor agonist as a reference agonist was added in buffer and, finally, the changes in the intracellular Ca^2+ concentration were measured in the FLIPR unit.
Results were presented as the percentage change relative to the control (0%: analogous experiment without test substance and without reference agonist, i.e. only with buffer; 100%: analogous experiment without test substance, but with reference agonist in excess), and used to calculate dose/action curves, and IC50 values were determined. […]

[4] = biological target: T2, hCB1R; assay: In vitro functional assay with recombinant cells (FLIPR), cannabinoid 1 receptor; type: cell-based; parameters: expressed in transfected cells; host or cells: HEK293; settings: recombinant HEK293 cells expressing CB1 and G-protein Galpha16; intracellular Ca2+ change against reference agonist
Experimental: as §1, §2
Results were presented as the percentage change relative to the control (0%: analogous experiment without test substance and without reference agonist, i.e. only with buffer; 100%: analogous experiment without test substance, but with reference agonist in excess), and used to calculate dose/action curves, and IC50 values were determined.
The values of the functional assay compared to the cannabinoid 1 receptor including illustrative selectivities compared to the cannabinoid 2 receptor can be taken from table 1 which follows.

T1 sequence (P47746 whole entry): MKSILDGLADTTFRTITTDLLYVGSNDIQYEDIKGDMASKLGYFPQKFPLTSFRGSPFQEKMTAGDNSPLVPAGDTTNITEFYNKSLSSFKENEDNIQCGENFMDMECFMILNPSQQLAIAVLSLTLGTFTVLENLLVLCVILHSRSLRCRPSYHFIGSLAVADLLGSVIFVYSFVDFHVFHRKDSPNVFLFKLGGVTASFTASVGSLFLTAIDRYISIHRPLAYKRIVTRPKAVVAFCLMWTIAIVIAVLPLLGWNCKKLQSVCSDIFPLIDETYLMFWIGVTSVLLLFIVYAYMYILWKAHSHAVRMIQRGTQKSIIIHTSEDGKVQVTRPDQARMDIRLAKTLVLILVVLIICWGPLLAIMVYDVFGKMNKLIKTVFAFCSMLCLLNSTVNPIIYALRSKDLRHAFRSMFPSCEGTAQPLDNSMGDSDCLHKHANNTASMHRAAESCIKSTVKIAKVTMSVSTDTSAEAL

SMILES | fall in the body temperature [1] | Ki [2] | IC50 [3] | IC50 [4]
CCCCCCC(C)(C)c1ccc([C@@H]2C[C@H](O)CC[C@H]2CCCO)c(O)c1 [CP55.940] | 5-6 °C | – | – | –
CC1(C)C(=O)N(c2ccc(C#N)c(C(F)(F)F)c2)C(=O)N1Cc1ccccc1Nc1ccc(CN2CCNCC2=O)cc1 [Example 1, 4-(4,4-dimethyl-2,5-dioxo-3-{2-[4-(2-oxopiperazin-1-ylmethyl)phenylamino]-benzyl}imidazolidin-1-yl)-2-trifluoromethylbenzonitrile] | – | 0.034 µM | – | –
CC1(C)C(=O)N(c2ccc(F)c(C(F)(F)F)c2)C(=O)N1Cc1ccccc1Nc1ccc(-c2nnn[nH]2)cc1 [Example 2, 3-(4-fluoro-3-trifluoromethylphenyl)-5,5-dimethyl-1-{2-[4-(1H-tetrazol-5-yl)phenylamino]benzyl}imidazolidine-2,4-dione] | – | 0.108 µM | > 10 µM | 0.205 µM
CC1(C)C(=O)N(c2ccc(F)c(C(F)(F)F)c2)C(=O)N1Cc1ccc(F)cc1Nc1ccc(N2CCCC2=O)cc1 [Example 4, 1-{4-fluoro-2-[4-(2-oxopyrrolidin-1-yl)phenylamino]benzyl}-3-(4-fluoro-3-trifluoromethylphenyl)-5,5-dimethylimidazolidine-2,4-dione] | – | 0.103 µM | – | –
CC1(C)C(=O)N(c2ccc(F)c(C(F)(F)F)c2)C(=O)N1Cc1ccc(F)cc1Nc1ccc(-n2cnc3ccccc32)cc1 [Example 5, 1-[2-(4-benzimidazol-1-ylphenylamino)-4-fluorobenzyl]-3-(4-fluoro-3-trifluoromethylphenyl)-5,5-dimethylimidazolidine-2,4-dione] | – | 0.004 µM | – | 0.006 µM
COC(=O)C1CC(=O)N(c2ccc(Nc3cc(F)ccc3CN3C(=O)N(c4ccc(F)c(C(F)(F)F)c4)C(=O)C3(C)C)cc2)C1 (centres unmarked) [Example 6, methyl 1-(4-{5-fluoro-2-[3-(4-fluoro-3-trifluoromethylphenyl)-5,5-dimethyl-2,4-dioxoimidazolidin-1-ylmethyl]phenylamino}phenyl)-5-oxopyrrolidine-3-carboxylate] | – | 0.04 µM | – | –
CCOc1ccc(Nc2ccc(Nc3cc(F)ccc3CN3C(=O)N(c4ccc(F)c(C(F)(F)F)c4)C(=O)C3(C)C)cc2)nn1 [Example 7, 1-{2-[4-(6-ethoxypyridazin-3-ylamino)phenylamino]-4-fluorobenzyl}-3-(4-fluoro-3-trifluoromethylphenyl)-5,5-dimethyl-imidazolidine-2,4-dione] | – | 0.018 µM | – | 0.032 µM
COc1ccc(Nc2ccc(Nc3cc(F)ccc3CN3C(=O)N(c4ccc(F)c(C(F)(F)F)c4)C(=O)C3(C)C)cc2)nn1 [Example 8, {4-fluoro-2-[4-(6-methoxypyridazin-3-ylamino)phenylamino]benzyl}-3-(4-fluoro-3-trifluoro-methylphenyl)-5,5-dimethylimidazolidine-2,4-dione] | – | 0.01 µM | – | 0.024 µM
CC1(C)C(=O)N(c2ccc(F)c(C(F)(F)F)c2)C(=O)N1Cc1ccc(F)cc1Nc1ccc(Nc2ccc(Cl)nn2)cc1 [Example 10, 1-{2-[4-(6-chloropyridazin-3-ylamino)phenylamino]-4-fluorobenzyl}-3-(4-fluoro-3-trifluoromethylphenyl)-5,5-dimethyl-imidazolidine-2,4-dione] | – | 0.007 µM | – | 0.034 µM
CC1(C)C(=O)N(c2ccc(F)c(C(F)(F)F)c2)C(=O)N1Cc1ccc(F)cc1Nc1ccc(N2CCNCC2=O)cc1 [Example 13, 1-{4-fluoro-2-[4-(2-oxopiperazin-1-yl)phenylamino]benzyl}-3-(4-fluoro-3-trifluoromethylphenyl)-5,5-dimethylimidazolidine-2,4-dione] | – | – | – | 0.125 µM
CC1(C)C(=O)N(c2ccc(F)c(C(F)(F)F)c2)C(=O)N1Cc1ccc(F)cc1Nc1ccc(N2CCC(O)CC2)cc1 [Example 14, 1-{4-fluoro-2-[4-(4-hydroxypiperidin-1-yl)phenylamino]benzyl}-3-(4-fluoro-3-trifluoromethylphenyl)-5,5-dimethylimidazolidine-2,4-dione] | – | – | – | 0.009 µM
CC1(C)C(=O)N(c2ccc(F)c(C(F)(F)F)c2)C(=O)N1Cc1ccc(F)cc1Nc1ccc(C2NC(=O)NC2=O)cc1 (centres unmarked) [Example 15, 1-{2-[4-(2,5-dioxoimidazolidin-4-yl)phenylamino]-4-fluorobenzyl}-3-(4-fluoro-3-trifluoromethylphenyl)-5,5-dimethylimidazolidine-2,4-dione] | – | – | – | 0.06 µM
CC1(C)C(=O)N(c2ccc(F)c(C(F)(F)F)c2)C(=O)N1Cc1ccc(F)cc1Nc1ccc(N2CCNC2=O)cc1 [Example 16, 1-{4-fluoro-2-[4-(2-oxoimidazolidin-1-yl)phenylamino]benzyl}-3-(4-fluoro-3-trifluoromethylphenyl)-5,5-dimethylimidazolidine-2,4-dione] | – | – | – | 0.023 µM
CC1(C)C(=O)N(c2ccc(F)c(C(F)(F)F)c2)C(=O)N1Cc1ccc(F)cc1Nc1ccc(OC2CCOCC2)cc1 [Example 18, 1-{4-fluoro-2-[4-(tetrahydropyran-4-yloxy)phenylamino]benzyl}-3-(4-fluoro-3-trifluoromethylphenyl)-5,5-dimethylimidazolidine-2,4-dione] | – | – | – | 0.093 µM
